Laboratory results from publication PMC8113725, “Structure–activity relationship of ipglycermide binding to phosphoglycerate mutases” (The Journal of Biological Chemistry, 2021).
Where two headings read alike, the source gives them in different places. Bridge positions count the residues as written; N and C are the ends. Square brackets hold non-standard residues; d marks the D form. Peptide text beside a SMILES is read from it.

Tests used:
E. coli iPGM [1] = target: T1, E. coli iPGM (Escherichia coli, UniProt P37689); assay: biochemical; conditions: […]
D. immitis iPGM = D. immitis iPGM (Dirofilaria immitis, UniProt F4ZE01); assay: biochemical
B. malayi iPGM = target: T2, B. malayi iPGM (Brugia malayi, UniProt Q4VWF8); assay: biochemical; format: binding
T2 sequence (Q4VWF8 1-515): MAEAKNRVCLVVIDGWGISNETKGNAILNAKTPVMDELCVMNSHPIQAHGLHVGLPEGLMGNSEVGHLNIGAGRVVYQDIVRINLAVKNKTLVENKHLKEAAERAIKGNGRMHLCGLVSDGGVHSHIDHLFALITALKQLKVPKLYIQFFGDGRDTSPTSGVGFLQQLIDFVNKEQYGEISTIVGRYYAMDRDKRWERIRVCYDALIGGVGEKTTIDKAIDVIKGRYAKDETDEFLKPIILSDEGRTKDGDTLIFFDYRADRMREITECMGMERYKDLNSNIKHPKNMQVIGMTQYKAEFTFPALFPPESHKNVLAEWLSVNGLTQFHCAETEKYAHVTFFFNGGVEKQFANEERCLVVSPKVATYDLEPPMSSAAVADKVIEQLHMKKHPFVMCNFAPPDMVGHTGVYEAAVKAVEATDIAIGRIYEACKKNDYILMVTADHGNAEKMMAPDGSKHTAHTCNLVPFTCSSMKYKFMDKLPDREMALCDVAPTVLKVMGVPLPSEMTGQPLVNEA

C. elegans iPGM = C. elegans iPGM (Caenorhabditis elegans, UniProt G5EFZ1); assay: SPR binding kinetics and saturation binding, biotinylated iPGM on Biotin CAPture chip (Biacore S200)
E. coli iPGM [2] = target: T1, E. coli iPGM; assay: as above; conditions: for koff / kon: LoQ = limit of quantitation
[3] = SPR, 25 °C, global fit to 1:1 binding model
[4] = Supplementary Table 5, SPR, E.c. iPGM

Compound: CC(C)C[C@H](NC(=O)[C@H](Cc1ccccc1)NC(=O)[C@@H]1CSCC(=O)N[C@H](Cc2ccc(O)cc2)C(=O)N[C@@H](CC(=O)O)C(=O)N[C@@H](Cc2ccc(O)cc2)C(=O)N2CCC[C@H]2C(=O)NCC(=O)N[C@@H](CC(=O)O)C(=O)N[C@@H](Cc2ccc(O)cc2)C(=O)N1)C(=O)N[C@@H](Cc1ccc(O)cc1)C(=O)NCC(=O)N[C@H](C(=O)N[C@@H](CS)C(N)=O)[C@@H](C)O [Ce-2 Y9F] ({CH2CO}-[dY]DYPGDYCFLYGTC-NH2; thioether N-8)
- IC50 (E. coli iPGM [1]): 815 nM
- IC50 (D. immitis iPGM; Di iPGM Ave IC50 (M)): 2.69e-09 M
- IC50 (D. immitis iPGM; IC50 (M)): 2.79e-09 M

Compound: CC(C)C[C@H](NC(=O)[C@H](Cc1ccc(O)cc1)NC(=O)[C@@H]1CSCC(=O)N[C@H](Cc2ccc(O)cc2)C(=O)N[C@@H](CC(N)=O)C(=O)N[C@@H](Cc2ccc(O)cc2)C(=O)N2CCC[C@H]2C(=O)NCC(=O)N[C@@H](CC(=O)O)C(=O)N[C@@H](Cc2ccc(O)cc2)C(=O)N1)C(=O)N[C@@H](Cc1ccc(O)cc1)C(=O)NCC(=O)N[C@H](C(=O)N[C@@H](CS)C(N)=O)[C@@H](C)O [Ce-2 D2N] ({CH2CO}-[dY]NYPGDYCYLYGTC-NH2; thioether N-8)
- IC50 (E. coli iPGM [1]): 170 nM
- IC50 (D. immitis iPGM; Di iPGM Ave IC50 (M)): 1.99e-09 M
- IC50 (D. immitis iPGM; IC50 (M)): 1.87e-09 M

Compound: CC(C)C[C@H](NC(=O)[C@H](Cc1ccc(O)cc1)NC(=O)[C@@H]1CSCC(=O)N[C@H](Cc2ccc(O)cc2)C(=O)N[C@@H](CC(=O)O)C(=O)N[C@@H](Cc2ccc(O)cc2)C(=O)N2CCC[C@H]2C(=O)NCC(=O)N[C@@H](CC(=O)O)C(=O)N[C@@H](Cc2ccc(O)cc2)C(=O)N1)C(=O)N[C@@H](Cc1ccc(O)cc1)C(=O)NCCCC(=O)N[C@@H](CS)C(N)=O [Ce-2 [12-13]GABA]
- IC50 (E. coli iPGM [1]): 2980 nM
- IC50 (D. immitis iPGM; Di iPGM Ave IC50 (M)): 2.85e-09 M

Compound: CC(C)C[C@H](NC(=O)[C@H](Cc1ccc(O)cc1)NC(=O)[C@@H]1CSCC(=O)N[C@H](Cc2ccc(O)cc2)C(=O)N[C@@H](CC(=O)O)C(=O)N[C@@H](Cc2ccc(O)cc2)C(=O)N2CCC[C@H]2C(=O)NCC(=O)N[C@@H](CC(=O)O)C(=O)N[C@@H](Cc2ccc(O)cc2)C(=O)N1)C(=O)N[C@@H](Cc1ccc(O)cc1)C(=O)NCC(=O)N[C@H](C(=O)NO)[C@@H](C)O [Ce-2 C14NHOH]
- IC50 (E. coli iPGM [1]): 14000 nM
- IC50 (D. immitis iPGM; Di iPGM Ave IC50 (M)): 2.55e-09 M

Compound: CC(C)C[C@H](NC(=O)[C@H](Cc1ccccc1)NC(=O)[C@@H]1CSCC(=O)N[C@H](Cc2ccc(O)cc2)C(=O)N[C@@H](CC(=O)O)C(=O)N[C@@H](Cc2ccc(O)cc2)C(=O)N2CCC[C@H]2C(=O)NCC(=O)N[C@@H](CC(=O)O)C(=O)N[C@@H](Cc2ccccc2)C(=O)N1)C(=O)N[C@@H](Cc1ccc(O)cc1)C(=O)NCC(=O)N[C@H](C(=O)N[C@@H](CS)C(N)=O)[C@@H](C)O [Ce-2 Y7F, Y9F] ({CH2CO}-[dY]DYPGDFCFLYGTC-NH2; thioether N-8)
- IC50 (E. coli iPGM [1]): 4460 nM
- IC50 (D. immitis iPGM; Di iPGM Ave IC50 (M)): 2.07e-08 M
- IC50 (D. immitis iPGM; IC50 (M)): 2.03e-08 M

Compound: COc1ccc(C[C@H](NC(=O)[C@H](CC(C)C)NC(=O)[C@H](Cc2ccc(O)cc2)NC(=O)[C@@H]2CSCC(=O)N[C@H](Cc3ccc(O)cc3)C(=O)N[C@@H](CC(=O)O)C(=O)N[C@@H](Cc3ccc(O)cc3)C(=O)N3CCC[C@H]3C(=O)NCC(=O)N[C@@H](CC(=O)O)C(=O)N[C@@H](Cc3ccc(O)cc3)C(=O)N2)C(N)=O)cc1 [Ce-2d Y11(4OMe)F]
- IC50 (E. coli iPGM [1]): 12800 nM
- IC50 (D. immitis iPGM; Di iPGM Ave IC50 (M)): 6.05e-08 M

Compound: CC(C)C[C@H](NC(=O)[C@H](Cc1ccc(O)cc1)NC(=O)[C@@H]1CSCC(=O)N[C@H](Cc2ccc(O)cc2)C(=O)N[C@@H](CC(=O)O)C(=O)N[C@@H](Cc2ccc(O)cc2)C(=O)N2CCC[C@H]2C(=O)N[C@@H](CCC(N)=O)C(=O)N[C@@H](CC(=O)O)C(=O)N[C@@H](Cc2ccc(O)cc2)C(=O)N1)C(=O)N[C@@H](Cc1ccc(O)cc1)C(N)=O [Ce-2d G5Q]
- IC50 (D. immitis iPGM; Di iPGM Ave IC50 (M)): 5.99e-06 M

Compound: CC(C)C[C@H](NC(=O)[C@H](Cc1ccc(O)cc1)NC(=O)[C@@H]1CSCC(=O)N[C@H](Cc2ccc(O)cc2)C(=O)N[C@@H](CC(=O)O)C(=O)N[C@@H](Cc2ccc(O)cc2)C(=O)N2CCC[C@H]2C(=O)NCC(=O)N[C@@H](CC(=O)O)C(=O)N[C@@H](Cc2ccc(O)cc2)C(=O)N1)C(=O)N[C@@H](Cc1ccc(O)cc1)C(=O)NCC(=O)N[C@@H](CO)C(=O)N[C@@H](CS)C(N)=O [Ce-2 Thr13Ser]
- koff (B. malayi iPGM): 7.84e-05 s⁻¹
- kon (B. malayi iPGM): 1.47e+06 M⁻¹ s⁻¹
- Kd (B. malayi iPGM; KD, Supplementary Table 5, SPR, B.m. iPGM, unit inferred): 0.0853 nM
- koff (B. malayi iPGM; [3]): 7.8e-05 s⁻¹
- kon (B. malayi iPGM; [3]): 1.6e+06 M⁻¹ s⁻¹
- IC50 (D. immitis iPGM; IC50 (M)): 2.56e-09 M
- Kd (C. elegans iPGM): 0.0287 nM
- koff (C. elegans iPGM): 7.83e-05 s⁻¹
- kon (C. elegans iPGM): 2.86e+06 M⁻¹ s⁻¹
- koff (C. elegans iPGM; [3]): 0.00017 s⁻¹
- kon (C. elegans iPGM; [3]): 2.9e+06 M⁻¹ s⁻¹
- koff (E. coli iPGM [2]; SPR, 25 °C, global fit to 1:1 binding model, read-out: koff): 0.00033 s⁻¹
- kon (E. coli iPGM [2]; SPR, 25 °C, global fit to 1:1 binding model, read-out: kon): 240000 M⁻¹ s⁻¹
- koff (E. coli iPGM [2]; [4]): 0.000333 s⁻¹
- kon (E. coli iPGM [2]; [4]): 236000 M⁻¹ s⁻¹
- Kd (E. coli iPGM [2]; Supplementary Table 5, SPR, E.c. iPGM, unit inferred): 1.31 nM
